The source of these data is patent publication US12564596B2, “Agents and methods for modulating pathogen activity” (Griffith University, priority 2018, dated 2026).

Read-outs that look alike come from different tables or passages of the source.

The subject of one experiment is N. gonorrhoeae strains. Nature of the experiment: Well diffusion assay in the absence of human cells. On the set-up: species or system Neisseria gonorrhoeae. The settings on record: GC-agar, overnight 37° C. The procedure:
(§1) FIG. 22 is a graphical representation showing the effect of carbamazepine on N. gonorrhoeae in the absence of human cells. Well diffusion assays were performed in which N. gonorrhoeae strains were spread uniformly across the surface of GC-agar plates at a culture density of 10^7 bacterial per mL. Wells were then punctured within the agar surface to which carbamazepine (Cz; […], as noted), 0.2 μg/mL ceftriaxone (Cfx), 10 μg/mL ciprofloxacin (Cip), or 1% DMSO (vehicle control) were added. […] For agar plates in which a ZOI was not visible, data were recorded as the diameter of the well (6 mm), as indicated. Assays were performed in triplicate on 3 separate occasions. Data are presented as the mean and variance of the average values obtained for each assay; statistical significance was determined using a Student's t-test. […] This is consistent with a CR3-dependent, host-mediated mechanism of killing.
as §1, with “23” for “22”, “methyldopa” for “carbamazepine”, “methyldopa (Md;” for “carbamazepine (Cz;”
FIG. 24 is a graphical representation showing the effect of flufenamic acid on N. gonorrhoeae in the absence of human cells. Well diffusion assays were performed in which N. gonorrhoeae strains were spread uniformly across the surface of GC-agar plates at a culture density of 10^7 bacterial per mL. Wells were then punctured within the agar surface to which flufenamic acid ([…], as noted), 0.2 μg/mL ceftriaxone, 10 μg/mL ciprofloxacin, or 1% DMSO (vehicle control) were added. […] For agar plates in which a ZOI was not visible, data were recorded as the diameter of the well (6 mm), as indicated. Assays were performed in triplicate on 3 separate occasions. Data are presented as the mean and variance of the average values obtained for each assay; statistical significance was determined using a Student's t-test.
For orientation: In agar diffusion tests the substance spreads into inoculated agar from a disc or well.

Experiment [1] deals with T1, human recombinant I-domain (rI-domain) of CD11b (Homo sapiens, UniProt P11215).
T1 construct: made in house
T1 sequence (P11215 150-328 limits assumed): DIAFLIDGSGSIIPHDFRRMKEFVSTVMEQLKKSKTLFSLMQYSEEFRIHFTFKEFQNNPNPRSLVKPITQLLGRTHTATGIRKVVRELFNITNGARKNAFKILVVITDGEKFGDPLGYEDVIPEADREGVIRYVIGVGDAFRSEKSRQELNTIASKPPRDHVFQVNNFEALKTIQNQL
Briefly: Surface plasmon resonance binding to human rI-domain (KD). (In general: Surface plasmon resonance follows binding to a sensor surface in real time, without labels.)

In experiment [2] the test system is primary T-cell derived WITO HIV interaction with human rI-domain. Briefly: SPR 1:1 competition assay, WITO HIV binding to rI-domain. The settings on record: for % inhibition: 1:1 competition, 1 μM; for Block HIV in SPR: direct competition SPR; for Drug RU: drug alone flowed at 1 μM over immobilized WITO HIV; for Pilin + Drug RU: drug and human rI-domain flowed at 1 μM, 1:1. How it is done: For competition analysis SPR of the HIV interaction with human rI-domain, primary T-cell derived WITO HIV was immobilized on a Cl sensor chip surface. Human rI-domain, drug or drug and human rI-domain were flowed at 1 μM over the immobilized HIV and the response units of the interactions were recorded. Any drug that could not compete with the virus or pilin binding to the rI-domain was also discarded. Remaining drugs were evaluated for known safety in humans and known therapeutic concentrations to determine if the drug would be tested, and at what concentrations, in in vitro cell models. All SPR sensorgrams and results plots were analyzed with Biacore S200 Evaluation Software (GE Healthcare Life Sciences).

Experiment [3] concerns the target T2, N. gonorrhoeae MS11 pilin interaction with human rI-domain (Homo sapiens, UniProt P11215).
T2 construct: was performed with human rI-domain immobilized on a CM5 sensor chip surface; made in house
Briefly: SPR 1:1 competition assay, MS11 pilin binding to rI-domain. The settings on record: for inhibition at 0.1 µM: 1:1 competition, 100 nM; for Block MS11 pilin in SPR: direct competition SPR; for Drug RU: drug alone flowed at 100 nM over immobilized rI-domain; for Pilin + Drug RU: drug and pilin flowed at 100 nM, 1:1. How it is done:
To determine if drugs with high affinity interactions with the human rI-domain could inhibit the interaction with MS11 pilin or HIV, competition assay between primary T-cell derived WITO HIV and N. gonorrhoeae MS11 pilin and the drugs were performed as described Mubaiwa et al (2017, Sci Rep. 7(1):5693). Competition analysis SPR of N. gonorrhoeae MS11 pilin and human rI-domain interaction was performed with human rI-domain immobilized on a CM5 sensor chip surface (low immobilization—˜3500 RU compared to ˜14000 RU for initial screening and KD calculations). N. gonorrhoeae MS11 purified pilin, drug or drug and pilin were flowed at 100 nM over the I-domain and the response units of the interactions were recorded.

For experiment [4], the system named is N. gonorrhoeae adherence to primary human cervical epithelial (PEX) cells. Briefly: Fluorometric adherence assay, gonococci to PEX cells. In kind it is cell-based, Neisseria gonorrhoeae. The settings on record: for gonococcal adherence to PEX cells with increasing concentrations: 1 h post-challenge; for inhibition at 0.01 µM: Neisseria gonorrhoeae, 1 h, read-out: inhibition of adherence to PEX cells; for gonococcal adherence to PEX cells compared with uninfected cells: MS11gfp. An excerpt: Briefly, six N. gonorrhoeae strains were used in the experiments. These included the laboratory strain, MS11; the low-passage isolates, 1291, UT38097, LT38885, PID-26, and SK92-679; all of which were transformed with the green fluorescent protein (GFP) expression plasmid, pCmGFP (GenBank accession number FJ172221) Srikhanta et al (2009, PLoS Pathog. 5(4):e1000400) and, thus, expressed GFP Edwards et al (2000, Infect Immun 68(9):5354-63). […] The ability of carbamazepine to block the adherence of N. gonorrhoeae to human, primary cervical epithelial (PEX) cells was evaluated using a fluorometric adherence assay. Assays were performed essentially as described by Jen et al (2013, supra). In this regard, PEX cells were seeded to a 96-well plate and allowed to grow to confluence. Gonococci were then used to challenge (1 h) PEX cells simultaneously with, or without, various concentrations of carbamazepine ([…], 10 nM, 1 μM, or 100 μM, as noted) or 1% DMSO (vehicle control). Uninfected PEX cells treated with 1% DMSO served as a control for background fluorescence. Fluorescence (485/528 nm) intensity, corresponding to bacterial adherence, was recorded using a Synergy HT Multi-mode Microplate Reader (BioTek Instruments, Winooski, VT USA). The assay was performed in triplicate on 3 separate occasions. A Student's t-test was used to determine the statistical significance of the calculated mean of bacterial adherence.
(§2) The ability of the compounds, or negative controls to block adherence of N. gonorrhoeae strain MS11gfp to PEX cells, CHO-CR3, or CHO-neo cells was evaluated using a fluorometric microtiter plate assay. Assays were performed essentially as described by Jen et al. (2013, Plos Pathog 9(5): e1003377). In this regard, GFP-expressing gonococci were used to challenge (1 h) PEX or CHO cells immediately following compound addition. Fluorescence (485/528 nm) intensity, corresponding to bacterial adherence, was recorded using a Synergy HT Multi-mode Microplate Reader (BioTek Instruments, Winooski, VT USA). Blank wells, devoid of PEX or CHO cells, also were inoculated with bacteria and served as a control for non-specific binding. The assay was performed in triplicate on 3 separate occasions. A Student's t-test was used to determine the statistical significance of the calculated mean of bacterial adherence.

The test system of experiment [5] is N. gonorrhoeae strain MS11gfp adherence to CHO-CR3 cells. Briefly: Fluorometric adherence assay, gonococci to CHO cells. In kind it is cell-based, Neisseria gonorrhoeae. How it is done: The ability of carbamazepine to block adherence of N. gonorrhoeae strain MS11gfp to CHO-neo or CHO-CR3 cells was evaluated using a fluorometric adherence assay. Assays were performed essentially as described by Jen et al (2013, PLoS Pathog. 9(5):e1003377). In this regard, CHO-neo or CHO-CR3 cells were seeded to a 96-well plate and allowed to grow to confluence. MS11gfp gonococci were then used to challenge (1 h) CHO cells simultaneously with, or without, various concentrations of carbamazepine (as noted). Fluorescence (485/528 nm) intensity, corresponding to bacterial adherence, was recorded using a Synergy HT Multi-mode Microplate Reader (BioTek Instruments, Winooski, VT USA). The assay was performed in triplicate on 3 separate occasions. A Kruskal-Wallis k-sample analysis of variance was used to determine the statistical significance of the calculated mean of bacterial adherence.
as §2

[6] abbreviates: 0.2 μg/mL ceftriaxone, 10 μg/mL ciprofloxacin.

T2 sequence (P11215 150-328): as the sequence (P11215 150-328 limits assumed) above

On to `CO/N=C(\C(=O)N[C@@H]1C(=O)N2C(C(=O)O)=C(CSc3nc(=O)c(=O)[nH]n3C)CS[C@H]12)c1csc(N)n1` [ceftriaxone], for which the “effect on N. gonorrhoeae in the absence of human cells (zone of inhibition)” value (shortened to “effect on N. gonorrhoeae … (zone of inhibition)”) in the experiment with N. gonorrhoeae strains (setting [6]) was “direct effect in killing gonococci”.
The same measure, in the same setting: then `O=C(O)c1cn(C2CC2)c2cc(N3CCNCC3)c(F)cc2c1=O` [ciprofloxacin], with “direct effect in killing gonococci”.
The Kd is the free concentration of one partner at which half of the binding sites on the other are occupied at equilibrium, for simple one-to-one binding. As usually defined, the % inhibition is the relative decrease from the control value, in per cent. Low readings indicate a response near the control, high ones a response far below the control. Usually inhibition stands for the change of the read-out against control, counted positive when it falls. In the case of `O=C(O)c1ccccc1Nc1cccc(C(F)(F)F)c1` [flufenamic acid, 2{[3-(trifluoromethyl)phenyl]amino}benzoic acid], the equilibrium dissociation constant (Kd) in experiment [1] was 6.66 nM. For the same compound, in experiment [2], the “% inhibition” value is recorded as 85.47%, the “Block HIV in SPR” value was “Yes”, the “Drug RU” value is 0.473 RU and the “Pilin + Drug RU” value is listed as 8.857 RU. Besides, in experiment [3], the inhibition at 0.1 µM worked out at 79.8%, the “Block MS11 pilin in SPR” value is “Yes”, the “Drug RU” value is on record as 4.627 RU and the “Pilin + Drug RU” value was 10.872 RU. Moreover, in experiment [4], the “gonococcal adherence to PEX cells with increasing concentrations” value is reported as “dose-dependent decrease” and the inhibition at 0.01 µM is around 70%. Also, the “blocking of the adherence of gonococci to CR3” value in experiment [5] (100 μM, CHO-CR3 cells, 1 h) was “Greater than 86%”. Besides, the “gonococcal adherence to CHO-CR3, but not CHO-neo, cells with increasing concentrations” value in experiment [5] (1 h post-challenge) is given as “dose-dependent decrease”. The “effect on N. gonorrhoeae … (zone of inhibition)” value in the experiment with N. gonorrhoeae strains (100 μM to 100 μM [sic]) was “no effect”. The “effect on N. gonorrhoeae … (zone of inhibition)” value in the experiment on N. gonorrhoeae strains (concentrations of ≤1 μM) is recorded as “no effect”.
Regarding `C[C@](N)(Cc1ccc(O)c(O)c1)C(=O)O` [methyldopa, (S)-2-amino-3-(3,4-dihydroxyphenyl)-2-methyl-propanoic acid], in experiment [1] (SPR, single cycle kinetics, 25° C., PBS, read-out: KD), the equilibrium dissociation constant (Kd) stood at 1.01 nM. In experiment [2], the “% inhibition” value is reported as 93.94%, the “Block HIV in SPR” value is recorded as “Yes”, the “Drug RU” value is 0.296 RU and the “Pilin + Drug RU” value is on record as 3.692 RU. In addition, in experiment [3], 0.1 µM produced 88.9% inhibition, the “Block MS11 pilin in SPR” value is “Yes”, the “Drug RU” value was 4.578 RU and the “Pilin + Drug RU” value turned out to be 8.003 RU. The “gonococcal adherence to PEX cells compared with uninfected cells” value in experiment [4] (1 μM) was “not significantly (p≥0.234) different than those obtained for vehicle (DMSO)-treated, uninfected PEX cells”. In addition, the “gonococcal adherence to PEX cells compared with uninfected cells” value in experiment [4] (100 μM) is given as “not significantly (p≥0.234) different than that recorded for uninfected cells”. Besides, in experiment [4], the “gonococcal adherence to PEX cells with increasing concentrations” value is given as “dose-dependent decrease” and the inhibition at 0.01 µM is around 85%. The “gonococcal adherence to CHO-CR3 cells compared with CHO-neo cells” value in experiment [5] (100 μM, 1 h post-challenge) was “not significantly different than that recorded for CHO-neo cells”. Besides, the “gonococcal adherence to CHO-CR3, but not CHO-neo, cells with increasing concentrations” value in experiment [5] (1 h post-challenge) is given as “dose-dependent decrease”. Also, the “effect on N. gonorrhoeae … (zone of inhibition)” value in the experiment with N. gonorrhoeae strains (100 μM to 100 μM [sic]) is given as “no effect”.
